24 compounds from patent US20230002324A1, “NAPHTHOQUINONE DERIVATIVES FOR TREATMENT OF OXIDATIVE STRESS DISORDERS” (PTC THERAPEUTICS, INC., priority 2019, published 2023) can be followed below.

Data set [1] relates to Q7 cells (ST HDH Q7/7; immortalized mouse striatal cells). Kind of data set: Q7 RSL3 challenge cell survival (rescue) assay. It is filed as cell-based. The conditions noted are these: 18 h, read-out: Q7 RSL3 Survival EC50. The gist of the method: (§1)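 Q7 (33° C.) or NHF (37° C.) cells, 3,000/well, attached 5 h, then test compounds at varying final concentrations followed within 15 min by RSL3 (2 micromolar final); 0.3% DMSO. Assay medium identical to growth medium.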

Data set [2] concerns the target T1, CYP3A4 (Homo sapiens, UniProt P08684).
T1 construct: from tissue; host or cells: pooled human liver microsomes
The experiment in a line: CYP450 Inhibition Assay 1 (pooled human liver microsomes, midazolam). The conditions noted are these: for IC50: HLM 0.05 mg/mL, midazolam 5 μM, 5 min; for CYP3A4 inhibition, in words: comment on Table 4. It is filed as in vitro ADME. As to the method: The CYP450 inhibition assay provides in vitro assessment of the inhibitory potential of the test compounds against cytochrome P450 enzymes. Selective substrates were incubated with pooled human liver microsomes (HLM) as single substrates. All assays employed 100 mM potassium phosphate buffer at pH 7.4.
The assays were performed in a 96-well PCR plate in a final volume of 140 μL at 37° C. Test compounds were evaluated at seven concentrations to obtain IC50 values, with a final concentration of 0.1% DMSO in the incubation (total organic solvent at 1% in the incubation). Reactions were initiated by the addition of NADPH. After the enzyme-specific incubation time had elapsed, an aliquot from that enzyme reaction was quenched in Acetonitrile with 0.2% Formic Acid. Supernatant from the quenched reactions was diluted with an equal volume of water, prior to analysis by LC-MS/MS.
All samples were analyzed on LC-MS/MS using an AB Sciex 6500+ instrument equipped with electrospray ionization source, coupled to a Shimadzu Nexera X2 system. Samples were separated using a Waters UPLC HSS T3, 1.8 μm column, 1×50 mm (catalog #186003535) at a flow rate of 200 μL/min. Injection volume was 2 μL.

Data set [3] concerns normal human fibroblasts (NHF, GM21811). The experiment in a line: NHF GM21811 RSL3 challenge cell survival (rescue) assay. It is filed as cell-based. The conditions noted are these: Fibroblast, 48 h, read-out: NHF GM21811 RSL3 Survival EC50. A digest of the protocol:
as §1

The target in data set [4] is T1, CYP3A4. The experiment in a line: CYP450 Inhibition Assay 2 (pooled human liver microsomes, 5 concentrations). It is filed as in vitro ADME. Particulars: Table 3, HLM 0.05 mg protein/mL, 10 min reaction; for IC50 at 10 min: human, pooled human liver microsomes. As to the method: In an alternative experimental design, test compounds were evaluated at 5 concentrations in a 96 well assay plate. Initial combination with pooled human liver microsomes (0.05 mg protein/mL) was followed by a 5 minute incubation. […] The assay plate was incubated for an additional 30 minutes before the reaction was initiated with the addition of NADPH. After 10 minutes of reaction time, the reaction was quenched and samples were analyzed in a similar manner as described above.

Data set [5] deals with Q7 cells (ST HDH Q7/7; immortalized mouse striatal cells). The experiment in a line: Q7 Cystine Deprivation cell survival (rescue) assay. It is filed as cell-based. The conditions noted are these: 18 h, read-out: Q7 Cystine Deprivation Survival EC50. The gist of the method:
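Cells were seeded at 3,000/well and allowed to attach for 5 h at 33 °C. Wells were then washed twice with PBS and switched to cystine-free DMEM containing FBS, 4 mM L-glutamine, 1 mM pyruvate and 30 mg/L methionine to induce ferroptotic death. Compounds were scored for survival rescue.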

The mark [6] stands for this setting: Q7 cells, RSL3 2 micromolar, Cell Titer Glo.
The mark [7] stands for this setting: NHF cells, RSL3 2 micromolar, Cell Titer Glo.
The mark [8] stands for this setting: Q7 cells, cystine-free medium, Cell Titer Glo, 50% relative viability vs Vitamin K2 (1 micromolar).

Where two headings read alike, the source gives them in different places. Bounds are passed on as bounds.

T1 sequence (P08684 whole entry): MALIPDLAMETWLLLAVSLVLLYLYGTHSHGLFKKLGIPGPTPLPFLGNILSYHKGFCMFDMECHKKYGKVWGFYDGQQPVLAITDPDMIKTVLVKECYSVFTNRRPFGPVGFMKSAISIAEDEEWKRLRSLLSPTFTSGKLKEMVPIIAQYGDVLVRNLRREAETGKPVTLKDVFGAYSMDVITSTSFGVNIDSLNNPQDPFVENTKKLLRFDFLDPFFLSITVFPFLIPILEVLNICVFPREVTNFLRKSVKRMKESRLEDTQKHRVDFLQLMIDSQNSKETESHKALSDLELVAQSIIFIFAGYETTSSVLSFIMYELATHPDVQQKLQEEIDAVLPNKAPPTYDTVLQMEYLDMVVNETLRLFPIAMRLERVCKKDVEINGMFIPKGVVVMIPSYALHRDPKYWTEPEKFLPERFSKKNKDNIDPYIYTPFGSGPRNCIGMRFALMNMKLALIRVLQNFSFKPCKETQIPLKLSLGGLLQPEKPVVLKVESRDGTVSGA

With `N#Cc1nc(CC2=C(C3CC3)C(=O)c3c(F)ccc(F)c3C2=O)ccc1C(F)(F)F` [Example 84, 6-((3-cyclopropyl-5,8-difluoro-1,4-dioxo-1,4-dihydronaphthalen-2-yl)methyl)-3-(trifluoromethyl)picolinonitrile], the EC50 in data set [1] (setting [6]) and in data set [3] (setting [7]) was below 0.05 µM throughout. Besides, at CYP3A4 [2] (Table 3), half-maximal inhibition (IC50) was put at 1.56 µM.
On to `CCC1=C(Cc2ccc(C(F)(F)F)c(C#N)n2)C(=O)c2c(F)ccc(F)c2C1=O` [Example 83, 6-((3-ethyl-5,8-difluoro-1,4-dioxo-1,4-dihydronaphthalen-2-yl)methyl)-3-(trifluoromethyl)picolinonitrile], for which, in data set [1] (setting [6]), the EC50 was below 0.05 µM. For the same compound, 2.73 µM corresponded to half-maximal inhibition at CYP3A4 [2] (Table 3) (IC50).
The compound `CC1=C(Cc2cccnc2)C(=O)c2ccccc2C1=O` [Comparison Compound 1, reference compound] showed an IC50 on CYP3A4 [2] (Table 4 comparison) of 0.421 µM. The “CYP3A4 inhibition, in words” value at CYP3A4 [2] is “very potent inhibitor of CYP3A4”.
The compound `CC1=C(Cc2ccncc2)C(=O)c2ccccc2C1=O` [Comparison Compound 2, reference compound] registered an IC50 at CYP3A4 [2] (Table 4 comparison) of 1.07 µM. Also, the “CYP3A4 inhibition, in words” value on CYP3A4 [2] is given as “potent CYP3A4 inhibitor”.
Consider `CC1=C(Cc2ccccn2)C(=O)c2ccccc2C1=O` [Example 23, 2-methyl-3-(pyridin-2-ylmethyl)naphthalene-1,4-dione], for which the IC50 on CYP3A4 [4] is 12.7 µM; against CYP3A4 [2] (Table 3), 22.8 µM. For the same compound, the EC50 in data set [5] (setting [8]) is below 0.05 µM.
As for `CCCC1=C(Cc2ccc(C(F)(F)F)cn2)C(=O)c2ccccc2C1=O` [Example 109, 2-propyl-3-((5-(trifluoromethyl)pyridin-2-yl)methyl)naphthalene-1,4-dione], the IC50 at CYP3A4 [4] turned out to be 15.6 µM. The EC50 in data set [5] (setting [8]) was below 0.05 µM.
On to `CC1=C(Cc2ccc(C(F)(F)F)cn2)C(=O)c2c(ccc(F)c2F)C1=O` [Example 128, 5,6-difluoro-2-methyl-3-((5-(trifluoromethyl)pyridin-2-yl)methyl)naphthalene-1,4-dione], for which the EC50 in data set [1] (setting [6]) is below 0.05 µM. Also, on CYP3A4 [2] (Table 3), the IC50 was 1.3 µM.
`CCN(C(=O)c1ccc(CC2=C(C)C(=O)c3ccccc3C2=O)nc1)C(C)C` [Example 102, N-ethyl-N-isopropyl-6-((3-methyl-1,4-dioxo-1,4-dihydronaphthalen-2-yl)methyl)nicotinamide]: at CYP3A4 [4], the IC50 amounted to 8.8 µM. In addition, the EC50 in data set [5] (setting [8]) is below 0.05 µM.
Turning to `CCC1=C(Cc2ccc(C(F)(F)F)c(C#N)n2)C(=O)c2cc(F)cc(F)c2C1=O` [Example 86, 6-((3-ethyl-5,7-difluoro-1,4-dioxo-1,4-dihydronaphthalen-2-yl)methyl)-3-(trifluoromethyl)picolinonitrile], the EC50 in data set [1] (setting [6]) and in data set [3] (setting [7]) was below 0.05 µM in each case. The compound also showed an IC50 against CYP3A4 [2] (Table 3) of 6.66 µM.
With `CC1=C(Cc2ccc(C(F)(F)F)c(C#N)n2)C(=O)c2c(F)ccc(F)c2C1=O` [Example 79, 6-((5,8-difluoro-3-methyl-1,4-dioxo-1,4-dihydronaphthalen-2-yl)methyl)-3-(trifluoromethyl)picolinonitrile], the EC50 in data set [1] (setting [6]) and in data set [3] (setting [7]) was below 0.05 µM in each case. The compound also registered an IC50 against CYP3A4 [2] (Table 3) of 2.4 µM.
Turning to `CC1=C(Cc2ccc(C(=O)O)cn2)C(=O)c2ccccc2C1=O` [Example 99, 6-((3-methyl-1,4-dioxo-1,4-dihydronaphthalen-2-yl)methyl)nicotinic acid], the IC50 at 10 min at CYP3A4 [4] is at least 50 µM. Besides, the EC50 in data set [5] (setting [8]) was above 1 µM.
Take `O=C1C(Cc2ccc(C(F)(F)F)cn2)=C(C2CC2)C(=O)c2ccccc21` [Example 27, 2-cyclopropyl-3-((5-(trifluoromethyl)pyridin-2-yl)methyl)naphthalene-1,4-dione]: the IC50 at CYP3A4 [4] was 11.9 µM. For the same compound, in data set [5] (setting [8]), the EC50 was below 0.05 µM.
For the compound `[2H]C([2H])([2H])C1=C(Cc2ccc(C(F)(F)F)cn2)C(=O)c2cc(F)cc(F)c2C1=O` [Example 57, 5,7-difluoro-3-(methyl-d3)-2-((5-(trifluoromethyl)pyridin-2-yl)methyl)naphthalene-1,4-dione], in data set [1] (setting [6]), the EC50 is below 0.05 µM. The compound further returned an IC50 against CYP3A4 [2] (Table 3) of 1.49 µM.
Regarding `CCC1=C(Cc2ccc(C(F)(F)F)c(C#N)n2)C(=O)c2ccc(F)cc2C1=O` [Example 81, 6-((3-ethyl-6-fluoro-1,4-dioxo-1,4-dihydronaphthalen-2-yl)methyl)-3-(trifluoromethyl)picolinonitrile], the EC50 in data set [1] (setting [6]) and in data set [3] (setting [7]) was below 0.05 µM each time. In addition, the midpoint of inhibition at CYP3A4 [2] (Table 3), the IC50, lay at 11 µM.
`CC1=C(Cc2ccc(C(F)(F)F)cn2)C(=O)c2ccccc2C1=O` [Example 1, 2-methyl-3-((5-(trifluoromethyl)pyridin-2-yl)methyl)naphthalene-1,4-dione]: the IC50 turned out to be 35.7 µM on CYP3A4 [4] and 5.78 µM against CYP3A4 [2] (Table 3). Moreover, the EC50 in data set [1] (setting [6]), in data set [5] (setting [8]) and in data set [3] (setting [7]) was below 0.05 µM each time.
Turning to `CC1=C(Cc2ccc(C(=O)NCC3CC3)cn2)C(=O)c2ccccc2C1=O` [Example 105, N-(cyclopropylmethyl)-6-((3-methyl-1,4-dioxo-1,4-dihydronaphthalen-2-yl)methyl)nicotinamide], the IC50 at 10 min on CYP3A4 [4] is at least 50 µM. Further, the EC50 in data set [5] (setting [8]) lay within 0.05 to 0.25 µM.
On to `CC1=C(Cc2ccc(C(N)=O)cn2)C(=O)c2ccccc2C1=O` [Example 101, 6-((3-methyl-1,4-dioxo-1,4-dihydronaphthalen-2-yl)methyl)nicotinamide], for which, on CYP3A4 [4], the IC50 was 23 µM. Besides, in data set [5] (setting [8]), the EC50 is below 0.05 µM.
Turning to `CC1=C(C(C)c2ccccn2)C(=O)c2ccccc2C1=O` (stereo not shown) [Example 24, 2-methyl-3-(1-(pyridin-2-yl)ethyl)naphthalene-1,4-dione], the IC50 at CYP3A4 [4] came out at 20.1 µM. For the same compound, the EC50 in data set [5] (setting [8]) is below 0.05 µM.
On to `CC1=C(Cc2ccc(C(F)(F)F)c(C#N)n2)C(=O)c2ccc(F)cc2C1=O` [Example 70, 6-((6-fluoro-3-methyl-1,4-dioxo-1,4-dihydronaphthalen-2-yl)methyl)-3-(trifluoromethyl)picolinonitrile], for which the EC50 in data set [1] (setting [6]) and in data set [3] (setting [7]) was below 0.05 µM in each case. The IC50 on CYP3A4 [2] (Table 3) is 4.14 µM.
With `CC1=C(Cc2ccc(C(=O)NC3CCCC3)cn2)C(=O)c2ccccc2C1=O` [Example 100, N-cyclopentyl-6-((3-methyl-1,4-dioxo-1,4-dihydronaphthalen-2-yl)methyl)nicotinamide], on CYP3A4 [4], the IC50 at 10 min was at least 50 µM. In data set [5] (setting [8]), the EC50 lay in the range of 0.05 to 0.25 µM.
Consider `CC(C)C1=C(Cc2ccc(C(F)(F)F)cn2)C(=O)c2ccccc2C1=O` [Example 30, 2-isopropyl-3-((5-(trifluoromethyl)pyridin-2-yl)methyl)naphthalene-1,4-dione], for which, on CYP3A4 [4], the IC50 stood at 10.3 µM. Moreover, the EC50 in data set [5] and in data set [3] was below 0.05 µM throughout.
`CCC1=C(Cc2ccc(C(F)(F)F)cn2)C(=O)c2c(F)ccc(F)c2C1=O` [Example 55, 2-ethyl-5,8-difluoro-3-((5-(trifluoromethyl)pyridin-2-yl)methyl)naphthalene-1,4-dione]: the EC50 in data set [1] and in data set [3] was below 0.05 µM each time. Half-maximal inhibition against CYP3A4 [2] (Table 3) (IC50) was put at 3.68 µM.
As for `CC(C)(C)CC1=C(Cc2ccc(C(F)(F)F)cn2)C(=O)c2ccccc2C1=O` [Example 28, 2-neopentyl-3-((5-(trifluoromethyl)pyridin-2-yl)methyl)naphthalene-1,4-dione], on CYP3A4 [4], the IC50 at 10 min is at least 50 µM. The EC50 in data set [5] (setting [8]) was 0.05 to 0.25 µM.
`CCC1=C(Cc2ccc(C(F)(F)F)cn2)C(=O)c2ccccc2C1=O` [Example 26, 2-ethyl-3-((5-(trifluoromethyl)pyridin-2-yl)methyl)naphthalene-1,4-dione]: the IC50 on CYP3A4 [4] was 14.2 µM. Moreover, the EC50 in data set [1] (setting [6]), in data set [5] (setting [8]) and in data set [3] (setting [7]) was below 0.05 µM throughout.
